18 molecules from US11759462B2, “Spirocyclic compounds as tryptophan hydroxylase inhibitors” (priority 2013, dated 2023) can be followed below.

The target of this assay is T1, Recombinant human TPH1 (MBP tagged) (Homo sapiens, UniProt P17752).
T1 construct: cloning full length human TPH1 cDNA in to a bacterial pMAL-c5E expression vector; made in house; host or cells: E. coli BL21 (DE3)
T1 sequence (P17752 1-444): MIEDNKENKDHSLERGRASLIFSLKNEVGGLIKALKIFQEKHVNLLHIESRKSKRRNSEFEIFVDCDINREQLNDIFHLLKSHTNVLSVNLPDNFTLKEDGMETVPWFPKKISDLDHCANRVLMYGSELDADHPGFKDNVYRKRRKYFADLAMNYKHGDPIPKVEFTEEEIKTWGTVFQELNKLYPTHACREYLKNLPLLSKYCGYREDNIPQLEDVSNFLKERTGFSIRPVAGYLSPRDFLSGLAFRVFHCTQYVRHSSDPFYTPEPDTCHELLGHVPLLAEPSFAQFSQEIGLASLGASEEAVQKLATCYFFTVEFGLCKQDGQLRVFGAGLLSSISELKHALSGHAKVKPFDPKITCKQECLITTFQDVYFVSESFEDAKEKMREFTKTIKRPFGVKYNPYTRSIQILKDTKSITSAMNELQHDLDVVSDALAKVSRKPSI
Briefly: TPH1 in vitro inhibition assay (kinetic fluorescence). It counts as biochemical. The settings on record: read-out: TPH1 Range (TPH1 inhibition IC50). Put shortly: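 Final mix: 15 nM MBP-TPH1, 30 μM Trp, 36 μM 6-methyltetrahydropterin, 25 μM ferrous ammonium sulfate, 50 mM MES pH 7.1, 1% DMSO, room temperature.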

As usually defined, the IC50 is the concentration that inhibits the measured activity by half. For the molecule `CCCOc1ccc(-c2ccc([C@@H](Oc3cc(N4CCC5(CC4)CN[C@H](C(=O)O)C5)nc(N)n3)C(F)(F)F)cc2)cc1` [Example 55dd, (S)-8-(2-amino-6-((R)-2,2,2-trifluoro-1-(4′-propoxy-[1,1′-biphenyl]-4-yl)ethoxy)pyrimidin-4-yl)-2,8-diazaspiro[4.5]decane-3-carboxylic acid], the IC50 was 0.05 to 0.3 µM.
Turning to `CCN(CC)C(=O)c1ccc(-c2ccc([C@@H](Oc3cc(N4CCC5(CC4)CN[C@H](C(=O)O)C5)nc(N)n3)C(F)(F)F)cc2)cc1` [Example 55de, (S)-8-(2-amino-6-((R)-1-(4′-(diethylcarbamoyl)-[1,1′-biphenyl]-4-yl)-2,2,2-trifluoroethoxy)pyrimidin-4-yl)-2,8-diazaspiro[4.5]decane-3-carboxylic acid], the IC50 was 0.05 to 0.3 µM.
To `NC(=O)c1ccc(-c2ccc([C@@H](Oc3cc(N4CCC5(CC4)CN[C@H](C(=O)O)C5)nc(N)n3)C(F)(F)F)cc2)cc1` [Example 55df, (S)-8-(2-amino-6-((R)-1-(4′-carbamoyl-[1,1′-biphenyl]-4-yl)-2,2,2-trifluoroethoxy)pyrimidin-4-yl)-2,8-diazaspiro[4.5]decane-3-carboxylic acid] belongs 0.05 to 0.3 µM; to `CNC(=O)c1ccc(-c2ccc([C@@H](Oc3cc(N4CCC5(CC4)CN[C@H](C(=O)O)C5)nc(N)n3)C(F)(F)F)cc2)cc1` [Example 55dg, (S)-8-(2-amino-6-((R)-2,2,2-trifluoro-1-(4′-(methylcarbamoyl)-[1,1′-biphenyl]-4-yl)ethoxy)pyrimidin-4-yl)-2,8-diazaspiro[4.5]decane-3-carboxylic acid], 0.05 to 0.3 µM.
The figure for `Nc1nc(O[C@H](c2ccc(-c3ccc(C(=O)NCCN4CCOCC4)cc3)cc2)C(F)(F)F)cc(N2CCC3(CC2)CN[C@H](C(=O)O)C3)n1` [Example 55dh, (S)-8-(2-amino-6-((R)-2,2,2-trifluoro-1-(4′-((2-morpholinoethyl)carbamoyl)-[1,1′-biphenyl]-4-yl)ethoxy)pyrimidin-4-yl)-2,8-diazaspiro[4.5]decane-3-carboxylic acid] is 0.05 to 0.3 µM.
To `CS(=O)(=O)c1ccc(-c2ccc([C@@H](Oc3cc(N4CCC5(CC4)CN[C@H](C(=O)O)C5)nc(N)n3)C(F)(F)F)cc2)cc1` [Example 55di, (S)-8-(2-amino-6-((R)-2,2,2-trifluoro-1-(4′-(methylsulfonyl)-[1,1′-biphenyl]-4-yl)ethoxy)pyrimidin-4-yl)-2,8-diazaspiro[4.5]decane-3-carboxylic acid] belongs 0.05 to 0.3 µM; to `Nc1nc(O[C@H](c2ccc(-c3ccc(S(N)(=O)=O)cc3)cc2)C(F)(F)F)cc(N2CCC3(CC2)CN[C@H](C(=O)O)C3)n1` [Example 55dj, (S)-8-(2-amino-6-((R)-2,2,2-trifluoro-1-(4′-sulfamoyl-[1,1′-biphenyl]-4-yl)ethoxy)pyrimidin-4-yl)-2,8-diazaspiro[4.5]decane-3-carboxylic acid], 0.05 to 0.3 µM.
Take `Nc1nc(O[C@H](c2ccc(-c3ccc(C(=O)N4CCNCC4)cc3)cc2)C(F)(F)F)cc(N2CCC3(CC2)CN[C@H](C(=O)O)C3)n1` [Example 55dl, (S)-8-(2-amino-6-((R)-2,2,2-trifluoro-1-(4′-(piperazine-1-carbonyl)-[1,1′-biphenyl]-4-yl)ethoxy)pyrimidin-4-yl)-2,8-diazaspiro[4.5]decane-3-carboxylic acid]: the IC50 was 0.05 to 0.3 µM.
The figure for `CCCOc1ccc(-c2ccc([C@@H](Oc3cc(N4CCC5(CC4)CN[C@H](C(=O)O)C5)nc(N)n3)C(F)(F)F)cc2)cc1F` [Example 55dm, (S)-8-(2-amino-6-((R)-2,2,2-trifluoro-1-(3′-fluoro-4′-propoxy-[1,1′-biphenyl]-4-yl)ethoxy)pyrimidin-4-yl)-2,8-diazaspiro[4.5]decane-3-carboxylic acid] is 0.05 to 0.3 µM; for `CCOc1ccc(-c2ccc([C@@H](Oc3cc(N4CCC5(CC4)CN[C@H](C(=O)O)C5)nc(N)n3)C(F)(F)F)cc2)cc1F` [Example 55dn, (S)-8-(2-amino-6-((R)-1-(4′-ethoxy-3′-fluoro-[1,1′-biphenyl]-4-yl)-2,2,2-trifluoroethoxy)pyrimidin-4-yl)-2,8-diazaspiro[4.5]decane-3-carboxylic acid] it is 0.05 to 0.3 µM.
On to `CCOc1ccc(-c2ccc([C@@H](Oc3cc(N4CCC5(CC4)CN[C@H](C(=O)O)C5)nc(N)n3)C(F)(F)F)cc2)cc1` [Example 55do, (S)-8-(2-amino-6-((R)-1-(4′-ethoxy-[1,1′-biphenyl]-4-yl)-2,2,2-trifluoroethoxy)pyrimidin-4-yl)-2,8-diazaspiro[4.5]decane-3-carboxylic acid], for which the concentration for half-maximal inhibition (IC50) is under 0.05 µM.
For `Nc1nc(O[C@H](c2ccc(-c3ccc4nnccc4c3)cc2)C(F)(F)F)cc(N2CCC3(CC2)CN[C@H](C(=O)O)C3)n1` [Example 55dp, (S)-8-(2-amino-6-((R)-1-(4-(cinnolin-6-yl)phenyl)-2,2,2-trifluoroethoxy)pyrimidin-4-yl)-2,8-diazaspiro[4.5]decane-3-carboxylic acid], the IC50 is under 0.05 µM.
The figure for `Nc1nc(O[C@H](c2ccc(-c3ccc4c(c3)CCCO4)cc2)C(F)(F)F)cc(N2CCC3(CC2)CN[C@H](C(=O)O)C3)n1` [Example 55dq, (S)-8-(2-amino-6-((R)-1-(4-(chroman-6-yl)phenyl)-2,2,2-trifluoroethoxy)pyrimidin-4-yl)-2,8-diazaspiro[4.5]decane-3-carboxylic acid] is under 0.05 µM.
As to `COc1ccc(-c2ccc([C@@H](Oc3cc(N4CCC5(CC4)CN[C@H](C(=O)O)C5)nc(N)n3)C(F)(F)F)cc2)cc1F` [Example 55e, (S)-8-(2-amino-6-((R)-2,2,2-trifluoro-1-(3′-fluoro-4′-methoxy-[1,1′-biphenyl]-4-yl)ethoxy)pyrimidin-4-yl)-2,8-diazaspiro[4.5]decane-3-carboxylic acid], the IC50 was in the range of 0.05 to 0.3 µM.
For `Nc1nc(O[C@H](c2ccc(-c3ccc4cnsc4c3)cc2)C(F)(F)F)cc(N2CCC3(CC2)CN[C@H](C(=O)O)C3)n1` [Example 55f, (S)-8-(2-amino-6-((R)-1-(4-(benzo[d]isothiazol-6-yl)phenyl)-2,2,2-trifluoroethoxy)pyrimidin-4-yl)-2,8-diazaspiro[4.5]decane-3-carboxylic acid], the IC50 is 0.05 to 0.3 µM.
To `Nc1nc(O[C@H](c2ccc(-c3ccc4cnoc4c3)cc2)C(F)(F)F)cc(N2CCC3(CC2)CN[C@H](C(=O)O)C3)n1` [Example 55g, (S)-8-(2-amino-6-((R)-1-(4-(benzo[d]isoxazol-6-yl)phenyl)-2,2,2-trifluoroethoxy)pyrimidin-4-yl)-2,8-diazaspiro[4.5]decane-3-carboxylic acid] belongs 0.3 to 3 µM; to `Nc1nc(O[C@H](c2ccc(-c3ccc4cn[nH]c4c3)cc2)C(F)(F)F)cc(N2CCC3(CC2)CN[C@H](C(=O)O)C3)n1` [Example 55h, (S)-8-(6-((R)-1-(4-(1H-indazol-6-yl)phenyl)-2,2,2-trifluoroethoxy)-2-aminopyrimidin-4-yl)-2,8-diazaspiro[4.5]decane-3-carboxylic acid], 0.05 to 0.3 µM.
To `Cn1ncc2ccc(-c3ccc([C@@H](Oc4cc(N5CCC6(CC5)CN[C@H](C(=O)O)C6)nc(N)n4)C(F)(F)F)cc3)cc21` [Example 55i, (S)-8-(2-amino-6-((R)-2,2,2-trifluoro-1-(4-(1-methyl-1H-indazol-6-yl)phenyl)ethoxy)pyrimidin-4-yl)-2,8-diazaspiro[4.5]decane-3-carboxylic acid] belongs under 0.05 µM.
